# Measurements reported in patent US8168632B2, “Bicyclic amide derivatives for the treatment of respiratory disorders” (Cortex Pharmaceuticals, Inc., priority 2007, dated 2012).
# Test system: AMPA receptor
# Assay: In vivo electrophysiology (field EPSP in dentate gyrus of anesthetized animals)
# Settings: 10 mpk i.p., perforant path stimulation
# Experimental: The electrophysiological effects of the invention compounds were tested in vivo in anesthetized animals according to the following procedures. Animals are maintained under anesthesia by phenobarbital administered using a Hamilton syringe pump. Stimulating and recording electrodes are inserted into the perforant path and dentate gyrus of the hippocampus, respectively. Once electrodes are implanted, a stable baseline of evoked responses are elicited using single monophasic pulses (100 μs pulse duration) delivered at 3/min to the stimulating electrode. Field EPSPs are monitored until a stable baseline is achieved (about 20-30 min), after which a solution of test compound is injected intraperitoneally and evoked field potentials are recorded. Evoked potentials were recorded for approximately 2 h following drug administration or until the amplitude of the field EPSP returns to baseline. In the latter instance, it is common that an iv administration is also carried out with an appropriate dose of the same test compound. Invention compounds were assayed in the in vivo electrophysiology assay described above and data for representative test compounds is shown in the Table.
# The electrophysiological effects of invention compounds were tested in vivo in anesthetized animals according to the following procedures.
# Animals are maintained under anesthesia by phenobarbital administered using a Hamilton syringe pump. Stimulating and recording electrodes are inserted into the perforant path and dentate gyrus of the hippocampus, respectively. Once electrodes are implanted, a stable baseline of evoked responses are elicited using single monophasic pulses (100 μs pulse duration) delivered at 3/min to the stimulating electrode. Field EPSPs are monitored until a stable baseline is achieved (about 20-30 min), after which a solution of test compound is injected intraperitoneally and evoked field potentials are recorded. Evoked potentials are recorded for approximately 2 h following drug administration or until the amplitude of the field EPSP returns to baseline. […]
row,SMILES,In vivo Electrophysiology: % increase in the amplitude of the field EPSP in the dentate gyrus of rat [%]
1,"O=C(c1ccc2nonc2c1)N1C2CCCC1COC2 [Example 2, [2,1,3]-Benzoxadiazol-5-yl(3-oxa-9-azabicyclo[3.3.1]non-9-yl)methanone]",16
2,"O=C(c1ccc2nonc2c1)N1C2CCC1COC2 [Example 1, [2,1,3]-Benzoxadiazol-5-yl(3-oxa-8-azabicyclo[3.2.1]oct-8-yl)methanone]",17
3,"O=C(c1ccc2nonc2c1)N1C2COCC1COC2 [Example 3, [2,1,3]-Benzoxadiazol-5-yl(3,7-dioxa-9-azabicyclo[3.3.1]non-9-yl)methanone]",15
